In ChEMBL document CHEMBL2331514, “Structure-based design and synthesis of novel pseudosaccharine derivatives as antiproliferative agents and kinase inhibitors” (Eur J Med Chem, 2013):

Tests used:
MCF7 [1] = test: Cell cycle arrest in human MCF7 cells assessed as accumulation at G2/M phase at 10 uM after 24 hrs by propidium iodide staining-based FACS analysis (reference value: 4.80 %); type: functional
MCF7 [2] = test: Cell cycle arrest in human MCF7 cells assessed as accumulation at S phase at 10 uM after 24 hrs by propidium iodide staining-based FACS analysis (reference value: 36.60 %); type: functional
MCF7 [3] = test: Cell cycle arrest in human MCF7 cells assessed as accumulation at G1 phase at 10 uM after 24 hrs by propidium iodide staining-based FACS analysis (reference value: 58.50 %); type: functional
MCF7 [4] = test: Cell cycle arrest in human MCF7 cells assessed as accumulation at G0 phase at 10 uM after 24 hrs by propidium iodide staining-based FACS analysis (reference value: 1.30 %); type: functional
[5] = Partition coefficient, log P of the compound; type: physicochemical; conditions: octanol/water
[6] = target: Serine/threonine-protein kinase B-raf (Homo sapiens) (UniProt P15056); test: Inhibition of B-Raf kinase (unknown origin) using [33P]-ATP at 10 uM after 20 to 40 mins by scintillation counting analysis
[7] = target: Proto-oncogene tyrosine-protein kinase Src (Homo sapiens) (UniProt P12931); test: Inhibition of Src kinase (unknown origin) using [33P]-ATP at 10 uM after 20 to 40 mins by scintillation counting analysis
[8] = target: Tyrosine-protein kinase ZAP-70 (Homo sapiens) (UniProt P43403); test: Inhibition of ZAP-70 kinase (unknown origin) using [33P]-ATP at 10 uM after 20 to 40 mins by scintillation counting analysis
MDA-MB-468 = test: Cytotoxicity against human MDA-MB-468 cells after 48 hrs by SRB assay; type: functional; conditions: MDA-MB-468, 48 h
T47D = test: Cytotoxicity against human T47D cells after 48 hrs by SRB assay; type: functional
BT-549 [9] = test: Cytotoxicity against human BT549 cells after 48 hrs by SRB assay; type: functional; conditions: BT-549, 48 h, pooled result: one value given for 51 cell lines, strains, targets or settings
MCF7 [10] = test: Cytotoxicity against human MCF7 cells after 48 hrs by SRB assay; type: functional; conditions: MCF7, 48 h
PC-3 [11] = test: Cytotoxicity against human PC3 cells after 48 hrs by SRB assay; type: functional; conditions: PC-3, 48 h
SF-295 [12] = test: Cytotoxicity against human SF295 cells after 48 hrs by SRB assay; type: functional; conditions: SF-295, 48 h
NCI-H23 = test: Cytotoxicity against human NCI-H23 cells after 48 hrs by SRB assay; type: functional; conditions: NCI-H23, 48 h
RPMI-8226 = test: Cytotoxicity against human RPMI8226 cells after 48 hrs by SRB assay; type: functional; conditions: RPMI-8226, 48 h
BT-549 [13] = test: Cytotoxicity against human BT549 cells assessed as growth inhibition at 10 uM after 48 hrs by SRB assay; type: functional; conditions: BT-549, 48 h, read-out: GI
MDA-MB-231 = test: Cytotoxicity against human MDA-MB-231 cells assessed as growth inhibition at 10 uM after 48 hrs by SRB assay; type: functional; conditions: MDA-MB-231, 48 h, read-out: GI
DU-145 = test: Cytotoxicity against human DU145 cells assessed as growth inhibition at 10 uM after 48 hrs by SRB assay; type: functional; conditions: DU-145, 48 h, read-out: GI
MCF7 [14] = test: Cytotoxicity against human MCF7 cells assessed as growth inhibition at 10 uM after 48 hrs by SRB assay; type: functional; conditions: MCF7, 48 h, read-out: GI
PC-3 [15] = test: Cytotoxicity against human PC3 cells assessed as growth inhibition at 10 uM after 48 hrs by SRB assay; type: functional; conditions: PC-3, 48 h, read-out: GI
SN12C = test: Cytotoxicity against human SN12C cells assessed as growth inhibition at 10 uM after 48 hrs by SRB assay; type: functional; conditions: read-out: GI
RXF 393 = test: Cytotoxicity against human RXF393 cells assessed as growth inhibition at 10 uM after 48 hrs by SRB assay; type: functional; conditions: RXF 393, 48 h, read-out: GI
ACHN = test: Cytotoxicity against human ACHN cells assessed as growth inhibition at 10 uM after 48 hrs by SRB assay; type: functional; conditions: read-out: GI
IGROV-1 = test: Cytotoxicity against human IGROV1 cells assessed as growth inhibition at 10 uM after 48 hrs by SRB assay; type: functional; conditions: IGROV-1, 48 h, read-out: GI
UACC-257 = test: Cytotoxicity against human UACC257 cells assessed as growth inhibition at 10 uM after 48 hrs by SRB assay; type: functional; conditions: UACC-257, 48 h, read-out: GI
M14 = test: Cytotoxicity against human M14 cells assessed as growth inhibition at 10 uM after 48 hrs by SRB assay; type: functional; conditions: M14, 48 h, read-out: GI
LOX IMVI = test: Cytotoxicity against human LOXIMVI cells assessed as growth inhibition at 10 uM after 48 hrs by SRB assay; type: functional; conditions: read-out: GI
SNB-19 = test: Cytotoxicity against human SNB19 cells assessed as growth inhibition at 10 uM after 48 hrs by SRB assay; type: functional; conditions: SNB-19, 48 h, read-out: GI
SF-295 [16] = test: Cytotoxicity against human SF295 cells assessed as growth inhibition at 10 uM after 48 hrs by SRB assay; type: functional; conditions: SF-295, 48 h, read-out: GI
HCT-116 = test: Cytotoxicity against human HCT116 cells assessed as growth inhibition at 10 uM after 48 hrs by SRB assay; type: functional; conditions: HCT-116, 48 h, read-out: GI
COLO 205 = test: Cytotoxicity against human COLO205 cells assessed as growth inhibition at 10 uM after 48 hrs by SRB assay; type: functional; conditions: COLO 205, 48 h, read-out: GI
NCI-H522 = test: Cytotoxicity against human NCI-H522 cells assessed as growth inhibition at 10 uM after 48 hrs by SRB assay; type: functional; conditions: NCI-H522, 48 h, read-out: GI
HOP-92 = test: Cytotoxicity against human HOP92 cells assessed as growth inhibition at 10 uM after 48 hrs by SRB assay; type: functional; conditions: HOP-92, 48 h, read-out: GI
[17] = Cytotoxicity against human EKVX cells assessed as growth inhibition at 10 uM after 48 hrs by SRB assay; type: functional; conditions: read-out: GI
HL-60(TB) = test: Cytotoxicity against human HL-60(TB) cells assessed as growth inhibition at 10 uM after 48 hrs by SRB assay; type: functional; conditions: HL-60, 48 h, read-out: GI
CCRF-CEM = test: Cytotoxicity against human CCRF-CEM cells assessed as growth inhibition at 10 uM after 48 hrs by SRB assay; type: functional; conditions: read-out: GI
[18] = read-out: LC50 (the source's name)

Chain of Serine/threonine-protein kinase B-raf (Homo sapiens) (P15056 whole entry): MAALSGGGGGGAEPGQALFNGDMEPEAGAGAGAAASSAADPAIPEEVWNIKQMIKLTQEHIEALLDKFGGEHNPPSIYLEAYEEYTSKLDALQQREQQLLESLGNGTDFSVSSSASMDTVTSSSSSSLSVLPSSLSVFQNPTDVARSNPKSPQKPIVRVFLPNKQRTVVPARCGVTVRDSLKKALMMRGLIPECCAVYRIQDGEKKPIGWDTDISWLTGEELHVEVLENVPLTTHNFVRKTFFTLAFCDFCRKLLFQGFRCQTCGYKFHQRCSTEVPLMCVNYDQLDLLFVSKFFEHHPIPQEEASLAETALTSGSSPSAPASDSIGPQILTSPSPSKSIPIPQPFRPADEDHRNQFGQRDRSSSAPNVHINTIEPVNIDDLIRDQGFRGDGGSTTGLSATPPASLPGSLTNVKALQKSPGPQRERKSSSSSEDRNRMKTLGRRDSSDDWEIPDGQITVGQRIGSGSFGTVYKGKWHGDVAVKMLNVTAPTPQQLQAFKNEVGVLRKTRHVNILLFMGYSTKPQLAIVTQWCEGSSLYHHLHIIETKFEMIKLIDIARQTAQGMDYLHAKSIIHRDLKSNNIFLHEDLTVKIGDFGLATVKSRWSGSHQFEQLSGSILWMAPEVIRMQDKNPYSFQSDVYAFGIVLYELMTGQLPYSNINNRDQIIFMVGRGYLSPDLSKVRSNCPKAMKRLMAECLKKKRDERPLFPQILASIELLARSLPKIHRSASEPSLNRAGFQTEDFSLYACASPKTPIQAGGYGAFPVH
Chain of Tyrosine-protein kinase ZAP-70 (Homo sapiens) (P43403 whole entry): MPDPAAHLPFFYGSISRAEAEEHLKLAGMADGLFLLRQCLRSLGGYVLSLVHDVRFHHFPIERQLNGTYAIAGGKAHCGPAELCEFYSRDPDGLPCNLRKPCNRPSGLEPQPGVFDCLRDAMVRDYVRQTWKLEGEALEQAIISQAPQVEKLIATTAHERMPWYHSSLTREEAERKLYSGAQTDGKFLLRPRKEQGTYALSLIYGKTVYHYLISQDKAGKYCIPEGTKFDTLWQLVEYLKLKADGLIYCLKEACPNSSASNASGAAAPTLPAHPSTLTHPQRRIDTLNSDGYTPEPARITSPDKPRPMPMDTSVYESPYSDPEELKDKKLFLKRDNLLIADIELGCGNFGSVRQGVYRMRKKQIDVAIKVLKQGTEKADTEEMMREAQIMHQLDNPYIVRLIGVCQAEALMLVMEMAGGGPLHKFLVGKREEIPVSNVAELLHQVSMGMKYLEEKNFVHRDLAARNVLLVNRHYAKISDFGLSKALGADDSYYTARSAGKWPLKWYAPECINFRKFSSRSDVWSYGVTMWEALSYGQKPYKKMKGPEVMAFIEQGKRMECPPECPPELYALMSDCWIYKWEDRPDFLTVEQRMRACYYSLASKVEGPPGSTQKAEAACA
Chain of Proto-oncogene tyrosine-protein kinase Src (Homo sapiens) (P12931 2-536 limits assumed): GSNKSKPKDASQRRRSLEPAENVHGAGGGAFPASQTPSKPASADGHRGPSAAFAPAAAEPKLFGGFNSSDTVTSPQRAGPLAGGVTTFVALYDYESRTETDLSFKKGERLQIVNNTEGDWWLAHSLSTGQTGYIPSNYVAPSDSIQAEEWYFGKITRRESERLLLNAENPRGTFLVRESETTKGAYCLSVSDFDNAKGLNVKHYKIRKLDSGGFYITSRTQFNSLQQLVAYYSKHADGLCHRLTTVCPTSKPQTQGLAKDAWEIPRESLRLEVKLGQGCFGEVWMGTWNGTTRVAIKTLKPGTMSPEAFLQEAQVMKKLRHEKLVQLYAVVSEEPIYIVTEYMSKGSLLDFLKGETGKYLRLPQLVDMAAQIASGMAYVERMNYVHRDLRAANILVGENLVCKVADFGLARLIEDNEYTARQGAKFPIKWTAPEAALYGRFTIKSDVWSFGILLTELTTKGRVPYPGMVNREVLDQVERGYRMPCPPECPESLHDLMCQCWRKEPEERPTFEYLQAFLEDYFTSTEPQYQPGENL

SMILES: O=C(Nc1ccc(Cl)cc1)Nc1ccc2c(c1)C(Nc1ccc(Cl)cc1Cl)=NS2(=O)=O
- Activity (MCF7 [1]): 6.4%
- Activity (MCF7 [2]): 15.2%
- Activity (MCF7 [3]): 78.3%
- Activity (MCF7 [4]): 1.4%
- logP [5]: 4.24
- inhibition [6]: -8%
- inhibition [7]: 58%
- inhibition [8]: 13%
- GI50 (MDA-MB-468): 2.75 µM
- TGI (MDA-MB-468): > 100 µM
- CC50 (MDA-MB-468; [18]): > 100 µM
- GI50 (T47D): 2.63 µM
- TGI (T47D): > 100 µM
- CC50 (T47D; [18]): > 100 µM
- GI50 (BT-549 [9]): 5.7 µM
- GI50 (MCF7 [10]): 3.6 µM
- GI50 (PC-3 [11]): 2.82 µM
- TGI (PC-3 [11]): > 100 µM
- CC50 (PC-3 [11]; [18]): > 100 µM
- GI50 (SF-295 [12]): 2.88 µM
- TGI (SF-295 [12]): > 100 µM
- CC50 (SF-295 [12]; [18]): > 100 µM
- GI50 (NCI-H23): 2.69 µM
- TGI (NCI-H23): 12.3 µM
- CC50 (NCI-H23; [18]): > 100 µM
- GI50 (RPMI-8226): 2.19 µM
- TGI (RPMI-8226): 15.5 µM
- CC50 (RPMI-8226; [18]): > 100 µM
- inhibition of growth at 10 µM (BT-549 [13]): 49%
- inhibition of growth at 10 µM (MDA-MB-231): 43%
- inhibition of growth at 10 µM (DU-145): 71%
- inhibition of growth at 10 µM (MCF7 [14]): 79%
- inhibition of growth at 10 µM (PC-3 [15]): 82%
- inhibition of growth at 10 µM (SN12C): 67%
- inhibition of growth at 10 µM (RXF 393): 15%
- inhibition of growth at 10 µM (ACHN): 85%
- inhibition of growth at 10 µM (IGROV-1): 54%
- inhibition of growth at 10 µM (UACC-257): 38%
- inhibition of growth at 10 µM (M14): 63%
- inhibition of growth at 10 µM (LOX IMVI): 72%
- inhibition of growth at 10 µM (SNB-19): 64%
- inhibition of growth at 10 µM (SF-295 [16]): 96%
- inhibition of growth at 10 µM (HCT-116): 91%
- inhibition of growth at 10 µM (COLO 205): 77%
- inhibition of growth at 10 µM (NCI-H522): 77%
- inhibition of growth at 10 µM (HOP-92): 82%
- inhibition of growth at 10 µM [17]: 71%
- inhibition of growth at 10 µM (HL-60(TB)): 74%
- inhibition of growth at 10 µM (CCRF-CEM): 82%
